From ChEMBL document CHEMBL1123368, “Plant antitumor agents. 23. Synthesis and antileukemic activity of camptothecin analogues” (1986)
Activity calls are given as the source filed them. The calls are words filed in the database; no cut-off is given here.

Assays:
P338 [1] = test: Compound was evaluated for antitumor activity against P-338 leukemia in mice, active dose range of the compound; Lowest dose administered, dose range was 2.5-40 mg/kg; format: functional, Mus musculus
P338 [2] = test: Antitumor activity against P-338 leukemia in mice.; format: functional, Mus musculus
L1210 leukemia (mouse) [3] = test: Compound was evaluated for antitumor activity against L1210 leukemia in mice at the dose of 40 mg/kg; T/C=Survival time of treated/control animals*100
P338 [4] = test: Compound was evaluated for antitumor activity against P-338 leukemia in mice, active dose range of the compound; Lowest dose to highest dose administered, dose range was 2.5-40 mg/kg; format: functional, Mus musculus
P338 [5] = test: Compound was evaluated for antitumor activity against P-338 leukemia in mice at the dose of 32 mg/kg; T/C=Survival time of treated/control animals*100; format: functional, Mus musculus
P338 [6] = test: Compound was evaluated for antitumor activity against P-338 leukemia in mice.a ctive dose range was 8-32 mg/kg; format: functional, Mus musculus
P338 [7] = test: Compound was evaluated for antitumor activity against P-338 leukemia in mice, active dose range of the compound; Lowest dose to highest dose administered, dose range was 2-32 mg/kg; format: functional, Mus musculus
P338 [8] = test: Compound was evaluated for antitumor activity against P-338 leukemia in mice at the dose of 16 mg/kg; T/C=Survival time of treated/control animals*100; format: functional, Mus musculus
P338 [9] = test: Compound was evaluated for antitumor activity against P-338 leukemia in mice, active dose range of the compound; Lowest dose administered, dose range was 0.4-1.6 mg/kg; format: functional, Mus musculus
P338 [10] = test: Compound was evaluated for antitumor activity against P-338 leukemia in mice at the dose of 1.6 mg/kg; T/C=Survival time of treated/control animals*100; format: functional, Mus musculus
P338 [11] = test: Compound was evaluated for antitumor activity against P-338 leukemia in mice, active dose range of the compound; Lowest dose administered, dose range was 1.25-2.5 mg/kg; format: functional, Mus musculus
L1210 leukemia (mouse) [12] = test: Compound was evaluated for antitumor activity against L1210 leukemia in mice at the dose of 2.5 mg/kg; T/C=Survival time of treated/control animals*100
P338 [13] = test: Compound was evaluated for antitumor activity against P-338 leukemia in mice at the dose of 20 mg/kg; T/C=Survival time of treated/control animals*100; format: functional, Mus musculus
P338 [14] = test: Compound was evaluated for antitumor activity against P-338 leukemia in mice, active dose range of the compound; Lowest dose to highest dose administered, dose range was 5-40 mg/kg; format: functional, Mus musculus
L1210 leukemia (mouse) [15] = test: Antitumor activity against L1210 leukemia in mice
P338 [16] = test: Compound was evaluated for antitumor activity against P-338 leukemia in mice; T/C=Survival time of treated/control animals*100; Inactive; format: functional; conditions: Mus musculus
P338 [17] = test: Compound was evaluated for antitumor activity against P-338 leukemia in mice, active dose range of the compound; Lowest dose to highest dose administered, dose range was 7.5-60 mg/kg; format: functional, Mus musculus
P338 [18] = test: Compound was evaluated for antitumor activity against P-338 leukemia in mice at the dose of 60 mg/kg; T/C=Survival time of treated/control animals*100; format: functional, Mus musculus
P338 [19] = test: Compound was evaluated for antitumor activity against P-338 leukemia in mice, active dose range of the compound; Lowest dose administered, dose range was 7.5-15.5 mg/kg; format: functional, Mus musculus
P338 [20] = test: Compound was evaluated for antitumor activity against P-338 leukemia in mice at the dose of 25 mg/kg; T/C=Survival time of treated/control animals*100; format: functional, Mus musculus
P338 [21] = test: Compound was evaluated for antitumor activity against P-338 leukemia in mice. toxic dose range of the compound; Highest dose administered; format: functional, Mus musculus
P338 [22] = test: Compound was evaluated for antitumor activity against P-338 leukemia in mice, active dose range of the compound; Lowest dose administered, dose range was 3.12-25 mg/kg; format: functional, Mus musculus
P338 [23] = test: Compound was evaluated for antitumor activity against P-338 leukemia in mice at the dose of 8 mg/kg; T/C=Survival time of treated/control animals*100; format: functional, Mus musculus
P338 [24] = test: Compound was evaluated for antitumor activity against P-338 leukemia in mice, active dose range of the compound; Lowest dose administered, dose range was 4-16 mg/kg; format: functional, Mus musculus
P338 [25] = test: Compound was evaluated for antitumor activity against P-338 leukemia in mice; T/C=Survival time of treated/control animals *100; Inactive; format: functional; conditions: Mus musculus
P338 [26] = test: Compound was evaluated for antitumor activity against P-338 leukemia in mice at the dose of 2 mg/kg; T/C=Survival time of treated/control animals*100; format: functional, Mus musculus
P338 [27] = test: Compound was evaluated for antitumor activity against P-338 leukemia in mice, active dose range of the compound; Lowest dose administered, dose range was 2.0-4.0 mg/kg; format: functional, Mus musculus
L1210 leukemia (mouse) [28] = test: Compound was evaluated for antitumor activity against L1210 leukemia in mice, active dose range of the compound; Lowest dose administered, dose range was 2.5-5 mg/kg
P338 [29] = test: Compound was evaluated for antitumor activity against P-338 leukemia in mice at the dose of 4 mg/kg; T/C=Survival time of treated/control animals*100; format: functional, Mus musculus
P338 [30] = test: Compound was evaluated for antitumor activity against P-338 leukemia in mice at the dose of 3.1 mg/kg; T/C=Survival time of treated/control animals*100; format: functional, Mus musculus
P338 [31] = test: Compound was evaluated for antitumor activity against P-338 leukemia in mice, toxic dose range of the compound; format: functional, Mus musculus
P338 [32] = test: Compound was evaluated for antitumor activity against P-338 leukemia in mice, active dose range of the compound; Lowest dose administered, dose range was 0.4-3.1 mg/kg; format: functional, Mus musculus
L1210 leukemia (mouse) [33] = test: Compound was evaluated for antitumor activity against L1210 leukemia in mice at the dose of 10 mg/kg; T/C=Survival time of treated/control animals*100
L1210 leukemia (mouse) [34] = test: Compound was evaluated for antitumor activity against L1210 leukemia in mice, active dose range of the compound; Lowest dose administered, dose range was 2.5-20 mg/kg

## CC[C@@]1(O)C(=O)OCc2c1cc1n(c2=O)Cc2cc3cccc([N+](=O)[O-])c3nc2-1
P338 [1]
  Active dose range: 2.5 mg/kg
P338 [2]
  No. of cures: 0
L1210 leukemia (mouse) [3]
  T/C: 151%

## CC[C@@]1(O)C(=O)OCc2c1cc1n(c2=O)Cc2cc3c(NC(C)=O)c(O)ccc3nc2-1
P338 [2]
  No. of cures: 0
P338 [4]
  Active dose range: 2.5 mg/kg
L1210 leukemia (mouse) [3]
  T/C: 220%

## CCC1(O)C(=O)OCc2c1cc1n(c2=O)Cc2cc3cccnc3nc2-1 (stereo not drawn)
P338 [2]
  No. of cures: 0
P338 [5]
  T/C: 175%
P338 [6]
  Active dose range: 8 mg/kg

## CCN(CC)CCOc1ccc2nc3c(cc2c1)Cn1c-3cc2c(c1=O)COC(=O)[C@]2(O)CC.Cl
P338 [2]
  No. of cures: 0
P338 [7]
  Active dose range: 2 mg/kg
P338 [8]
  T/C: 183%

## CC[C@@]1(O)C(=O)OCc2c1cc1n(c2=O)Cc2cc3cc(OC)ccc3nc2-1
P338 [9]
  Active dose range: 0.4 mg/kg
P338 [10]
  T/C: 167%
P338 [2]
  No. of cures: 0

## CCC1(O)C(=O)OCc2c1cc1n(c2=O)Cc2cc3cnccc3nc2-1 (stereo not drawn)
P338 [2]
  No. of cures: 0
P338 [11]
  Active dose range: 1.25 mg/kg
L1210 leukemia (mouse) [12]
  T/C: 162%

## CC[C@@]1(O)C(=O)OCc2c1cc1n(c2=O)Cc2cc3c([N+](=O)[O-])c(OC)ccc3nc2-1
P338 [2]
  No. of cures: 0
P338 [4]
  Active dose range: 2.5 mg/kg
L1210 leukemia (mouse) [3]
  T/C: 160%

## CC[C@@]1(O)C(=O)OCc2c1cc1n(c2=O)Cc2cc3c(N)c(OC)ccc3nc2-1
P338 [2]
  No. of cures: 0
L1210 leukemia (mouse) [3]
  T/C: 186%

## CC[C@@]1(O)C(=O)OCc2c1cc1n(c2=O)Cc2cc3c([N+](=O)[O-])c(O)ccc3nc2-1
P338 [2]
  No. of cures: 0
P338 [4]
  Active dose range: 2.5 mg/kg
P338 [13]
  T/C: 131%

## CCC1(O)C(=O)OCc2c1cc1n(c2=O)Cc2cc3cc(NC(C)=O)ccc3nc2-1 (stereo not drawn)
P338 [2]
  No. of cures: 1
P338 [14]
  Active dose range: 5 mg/kg
L1210 leukemia (mouse) [15]
  KE (log cell kill): > 5.86
L1210 leukemia (mouse) [3]
  T/C: 318%

## CC[C@](O)(C(=O)[O-])c1cc2n(c(=O)c1CO)Cc1cc3ccccc3nc1-2.[Na+]
L1210 leukemia (mouse) [3]
  T/C: 215%

## CC[C@@]1(O)C(=O)OCc2c1cc1n(c2=O)Cc2cc3cc(OCC(=O)O)ccc3nc2-1
P338 [16]
  T/C: inactive

## CC[C@@]1(O)C(=O)OCc2c1cc1n(c2=O)Cc2cc3cccc(N)c3nc2-1
P338 [16]
  T/C: inactive

## CCC1(O)C(=O)OCc2c1cc1n(c2=O)Cc2cc3ccc(O)cc3nc2-1 (racemic)
P338 [17]
  Active dose range: 7.5 mg/kg
P338 [2]
  No. of cures: 3
P338 [18]
  T/C: 357%

## CCC1(O)C(=O)OCc2c1cc1n(c2=O)Cc2cc3cc([N+](=O)[O-])ccc3nc2-1 (racemic)
P338 [19]
  Active dose range: 7.5 mg/kg
P338 [2]
  No. of cures: 1
L1210 leukemia (mouse) [15]
  KE (log cell kill): > 5.86

## CCC1(O)C(=O)OCc2c1cc1n(c2=O)Cc2cc3sccc3nc2-1 (racemic)
P338 [20]
  T/C: 193%
P338 [2]
  No. of cures: 0
P338 [21]
  Toxic dose: 50 mg/kg
P338 [22]
  Active dose range: 3.12 mg/kg

## CCC1(O)C(=O)OCc2c1cc1n(c2=O)Cc2cc3cc(N)ccc3nc2-1 (racemic)
P338 [2]
  No. of cures: 3
P338 [21]
  Toxic dose: 32 mg/kg
P338 [23]
  T/C: 329%
P338 [24]
  Active dose range: 4 mg/kg
L1210 leukemia (mouse) [15]
  KE (log cell kill): > 5.86

## CCC1(O)C(=O)OCc2c1cc1n(c2=O)Cc2cc3cc(OC)c(OC)cc3nc2-1 (racemic)
P338 [21]
  Toxic dose: >50 mg/kg
P338 [25]
  T/C: inactive

## CCC1(O)C(=O)OCc2c1cc1n(c2=O)Cc2cc3cc4c(cc3nc2-1)OCO4 (racemic)
P338 [26]
  T/C: 325%
P338 [2]
  No. of cures: 2
L1210 leukemia (mouse) [15]
  KE (log cell kill): > 5.97
P338 [27]
  Active dose range: 2 mg/kg

## CC[C@@]1(O)C(=O)OCc2c1cc1n(c2=O)Cc2cc3c(N)cccc3nc2-1 [9-AMINOCAMPTOTHECIN]
P338 [2]
  No. of cures: 4
L1210 leukemia (mouse) [28]
  Active dose range: 2.5 mg/kg
L1210 leukemia (mouse) [12]
  T/C: 348%
L1210 leukemia (mouse) [15]
  KE (log cell kill): > 5.86

## CC[C@@]1(O)C(=O)OCc2c1cc1n(c2=O)Cc2cc3ccccc3nc2-1 [CAMPTOTHECIN]
P338 [29]
  T/C: 197%

## CC[C@@]1(O)C(=O)OCc2c1cc1n(c2=O)Cc2cc3cc(O)ccc3nc2-1 [HYDROXYCAMPTOTHECIN]
P338 [2]
  No. of cures: 0
P338 [30]
  T/C: 297%
P338 [31]
  Toxic dose: 6.25 mg/kg
P338 [32]
  Active dose range: 0.4 mg/kg

## CC[C@@]1(O)C(=O)OCc2c1cc1n(c2=O)Cc2cc3c([N+](=O)[O-])cccc3nc2-1 [RUBITECAN]
P338 [2]
  No. of cures: 5
P338 [21]
  Toxic dose: 40 mg/kg
L1210 leukemia (mouse) [33]
  T/C: 348%
L1210 leukemia (mouse) [15]
  KE (log cell kill): > 5.86
L1210 leukemia (mouse) [34]
  Active dose range: 2.5 mg/kg
